Results from ChEMBL document CHEMBL1152560, “Substituted 2-arylbenzothiazoles as kinase inhibitors: hit-to-lead optimization” (Bioorg Med Chem, 2009).

Assays:
[1] = target: T1, TGF-beta receptor type-1 (Homo sapiens) (UniProt P36897); test: Residual activity of TGFB-R1 at 0.1 uM by microplate scintillation counting
T1 sequence (whole entry): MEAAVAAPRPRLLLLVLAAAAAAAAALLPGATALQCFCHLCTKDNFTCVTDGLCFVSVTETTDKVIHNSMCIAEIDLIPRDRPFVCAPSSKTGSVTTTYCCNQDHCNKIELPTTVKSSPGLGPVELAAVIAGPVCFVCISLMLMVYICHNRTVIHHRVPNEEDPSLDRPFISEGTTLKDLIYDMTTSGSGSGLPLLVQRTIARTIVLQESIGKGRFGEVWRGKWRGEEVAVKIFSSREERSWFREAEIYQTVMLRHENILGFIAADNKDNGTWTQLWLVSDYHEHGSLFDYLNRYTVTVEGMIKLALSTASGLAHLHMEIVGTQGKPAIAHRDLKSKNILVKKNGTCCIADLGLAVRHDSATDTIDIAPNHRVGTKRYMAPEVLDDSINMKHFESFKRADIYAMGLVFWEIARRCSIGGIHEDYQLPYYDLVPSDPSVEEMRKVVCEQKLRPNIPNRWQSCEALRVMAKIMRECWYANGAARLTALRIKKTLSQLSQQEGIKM

[2] = target: Proto-oncogene tyrosine-protein kinase ROS (Homo sapiens) (UniProt P08922); test: Residual activity of ROS at 10 uM by microplate scintillation counting
[3] = target: Focal adhesion kinase 1 (Homo sapiens) (UniProt Q05397); test: Residual activity of FAK at 1 uM by microplate scintillation counting
[4] = system: Tyrosine-protein kinase ABL1 (Homo sapiens), P00519 [T315I]; test: Residual activity of ABL1 T315I mutant at 1 uM by microplate scintillation counting
[5] = system: Epidermal growth factor receptor (Homo sapiens), P00533 [L858R]; test: Residual activity of EGFR L858R mutant at 1 uM by microplate scintillation counting
[6] = target: Glycogen synthase kinase-3 beta (Homo sapiens) (UniProt P49841); test: Residual activity of GSK3-beta at 1 uM by microplate scintillation counting
[7] = target: Dual specificity protein kinase CLK1 (Homo sapiens) (UniProt P49759); test: Residual activity of CLK1 at 1 uM by microplate scintillation counting
[8] = target: Serine/threonine-protein kinase PAK 2 (Homo sapiens) (UniProt Q13177); test: Residual activity of PAK2 at 10 uM by microplate scintillation counting
[9] = target: Aurora kinase B (Homo sapiens, UniProt Q96GD4); test: Residual activity of Aurora-B at 1 uM by microplate scintillation counting
[10] = target: Cyclin-dependent kinase 2/cyclin A (Homo sapiens) (UniProt P24941+P20248+P78396); test: Residual activity of CDK2/Cyclin A at 1 uM by microplate scintillation counting; assay type: protein-complex assay
[11] = target: Protein-tyrosine kinase 2-beta (Homo sapiens) (UniProt Q14289); test: Residual activity of PYK2 at 1 uM by microplate scintillation counting
[12] = target: T2, Serine/threonine-protein kinase Nek3 (Homo sapiens) (UniProt P51956); test: Residual activity of NEK3 at 0.1 uM by microplate scintillation counting
T2 sequence (whole entry): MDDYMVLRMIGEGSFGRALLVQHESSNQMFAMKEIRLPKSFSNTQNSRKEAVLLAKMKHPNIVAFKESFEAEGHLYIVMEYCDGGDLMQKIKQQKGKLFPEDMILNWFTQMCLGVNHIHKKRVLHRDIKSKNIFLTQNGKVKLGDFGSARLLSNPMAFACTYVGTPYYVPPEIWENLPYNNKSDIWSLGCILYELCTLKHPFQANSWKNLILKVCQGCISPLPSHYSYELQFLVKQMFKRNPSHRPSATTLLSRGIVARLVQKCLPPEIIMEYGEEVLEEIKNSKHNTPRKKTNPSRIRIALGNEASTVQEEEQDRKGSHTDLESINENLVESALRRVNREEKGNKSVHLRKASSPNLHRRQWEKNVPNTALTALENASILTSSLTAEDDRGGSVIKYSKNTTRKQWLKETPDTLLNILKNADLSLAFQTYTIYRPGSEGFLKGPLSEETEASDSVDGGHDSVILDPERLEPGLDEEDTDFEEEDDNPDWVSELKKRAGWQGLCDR

[13] = target: Serine/threonine-protein kinase PAK 5 (Homo sapiens) (UniProt Q9P286); test: Residual activity of PAK7 at 10 uM by microplate scintillation counting
[14] = target: T3, Serine/threonine-protein kinase PLK4 (Homo sapiens) (UniProt O00444); test: Residual activity of SAK at 0.1 uM by microplate scintillation counting
T3 sequence (whole entry): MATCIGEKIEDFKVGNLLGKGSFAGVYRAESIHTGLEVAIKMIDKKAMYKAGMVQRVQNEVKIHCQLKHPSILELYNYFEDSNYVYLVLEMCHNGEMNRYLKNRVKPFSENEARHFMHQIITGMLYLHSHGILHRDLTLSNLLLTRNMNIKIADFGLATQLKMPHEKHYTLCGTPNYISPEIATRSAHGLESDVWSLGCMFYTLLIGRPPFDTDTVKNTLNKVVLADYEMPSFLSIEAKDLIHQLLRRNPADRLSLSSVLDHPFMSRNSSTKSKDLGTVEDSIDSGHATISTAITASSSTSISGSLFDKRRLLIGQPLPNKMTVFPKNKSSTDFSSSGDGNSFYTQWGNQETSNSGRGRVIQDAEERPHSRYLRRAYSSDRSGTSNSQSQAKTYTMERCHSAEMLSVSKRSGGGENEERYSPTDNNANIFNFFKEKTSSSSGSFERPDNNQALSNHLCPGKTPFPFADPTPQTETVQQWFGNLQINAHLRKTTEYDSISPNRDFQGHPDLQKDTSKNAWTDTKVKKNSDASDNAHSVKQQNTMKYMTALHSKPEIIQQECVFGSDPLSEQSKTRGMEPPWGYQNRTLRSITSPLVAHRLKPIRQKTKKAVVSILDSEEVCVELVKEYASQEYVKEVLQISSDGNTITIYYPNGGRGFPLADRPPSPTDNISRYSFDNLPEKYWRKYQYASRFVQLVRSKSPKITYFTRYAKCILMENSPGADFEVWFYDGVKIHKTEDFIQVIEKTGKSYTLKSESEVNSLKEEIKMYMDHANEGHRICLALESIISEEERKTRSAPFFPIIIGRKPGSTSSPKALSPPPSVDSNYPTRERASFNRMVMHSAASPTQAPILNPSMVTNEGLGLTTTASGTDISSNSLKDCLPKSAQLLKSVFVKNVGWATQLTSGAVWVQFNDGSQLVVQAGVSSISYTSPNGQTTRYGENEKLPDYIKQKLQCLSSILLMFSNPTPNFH

Chain of Proto-oncogene tyrosine-protein kinase ROS (Homo sapiens) (P08922 whole entry): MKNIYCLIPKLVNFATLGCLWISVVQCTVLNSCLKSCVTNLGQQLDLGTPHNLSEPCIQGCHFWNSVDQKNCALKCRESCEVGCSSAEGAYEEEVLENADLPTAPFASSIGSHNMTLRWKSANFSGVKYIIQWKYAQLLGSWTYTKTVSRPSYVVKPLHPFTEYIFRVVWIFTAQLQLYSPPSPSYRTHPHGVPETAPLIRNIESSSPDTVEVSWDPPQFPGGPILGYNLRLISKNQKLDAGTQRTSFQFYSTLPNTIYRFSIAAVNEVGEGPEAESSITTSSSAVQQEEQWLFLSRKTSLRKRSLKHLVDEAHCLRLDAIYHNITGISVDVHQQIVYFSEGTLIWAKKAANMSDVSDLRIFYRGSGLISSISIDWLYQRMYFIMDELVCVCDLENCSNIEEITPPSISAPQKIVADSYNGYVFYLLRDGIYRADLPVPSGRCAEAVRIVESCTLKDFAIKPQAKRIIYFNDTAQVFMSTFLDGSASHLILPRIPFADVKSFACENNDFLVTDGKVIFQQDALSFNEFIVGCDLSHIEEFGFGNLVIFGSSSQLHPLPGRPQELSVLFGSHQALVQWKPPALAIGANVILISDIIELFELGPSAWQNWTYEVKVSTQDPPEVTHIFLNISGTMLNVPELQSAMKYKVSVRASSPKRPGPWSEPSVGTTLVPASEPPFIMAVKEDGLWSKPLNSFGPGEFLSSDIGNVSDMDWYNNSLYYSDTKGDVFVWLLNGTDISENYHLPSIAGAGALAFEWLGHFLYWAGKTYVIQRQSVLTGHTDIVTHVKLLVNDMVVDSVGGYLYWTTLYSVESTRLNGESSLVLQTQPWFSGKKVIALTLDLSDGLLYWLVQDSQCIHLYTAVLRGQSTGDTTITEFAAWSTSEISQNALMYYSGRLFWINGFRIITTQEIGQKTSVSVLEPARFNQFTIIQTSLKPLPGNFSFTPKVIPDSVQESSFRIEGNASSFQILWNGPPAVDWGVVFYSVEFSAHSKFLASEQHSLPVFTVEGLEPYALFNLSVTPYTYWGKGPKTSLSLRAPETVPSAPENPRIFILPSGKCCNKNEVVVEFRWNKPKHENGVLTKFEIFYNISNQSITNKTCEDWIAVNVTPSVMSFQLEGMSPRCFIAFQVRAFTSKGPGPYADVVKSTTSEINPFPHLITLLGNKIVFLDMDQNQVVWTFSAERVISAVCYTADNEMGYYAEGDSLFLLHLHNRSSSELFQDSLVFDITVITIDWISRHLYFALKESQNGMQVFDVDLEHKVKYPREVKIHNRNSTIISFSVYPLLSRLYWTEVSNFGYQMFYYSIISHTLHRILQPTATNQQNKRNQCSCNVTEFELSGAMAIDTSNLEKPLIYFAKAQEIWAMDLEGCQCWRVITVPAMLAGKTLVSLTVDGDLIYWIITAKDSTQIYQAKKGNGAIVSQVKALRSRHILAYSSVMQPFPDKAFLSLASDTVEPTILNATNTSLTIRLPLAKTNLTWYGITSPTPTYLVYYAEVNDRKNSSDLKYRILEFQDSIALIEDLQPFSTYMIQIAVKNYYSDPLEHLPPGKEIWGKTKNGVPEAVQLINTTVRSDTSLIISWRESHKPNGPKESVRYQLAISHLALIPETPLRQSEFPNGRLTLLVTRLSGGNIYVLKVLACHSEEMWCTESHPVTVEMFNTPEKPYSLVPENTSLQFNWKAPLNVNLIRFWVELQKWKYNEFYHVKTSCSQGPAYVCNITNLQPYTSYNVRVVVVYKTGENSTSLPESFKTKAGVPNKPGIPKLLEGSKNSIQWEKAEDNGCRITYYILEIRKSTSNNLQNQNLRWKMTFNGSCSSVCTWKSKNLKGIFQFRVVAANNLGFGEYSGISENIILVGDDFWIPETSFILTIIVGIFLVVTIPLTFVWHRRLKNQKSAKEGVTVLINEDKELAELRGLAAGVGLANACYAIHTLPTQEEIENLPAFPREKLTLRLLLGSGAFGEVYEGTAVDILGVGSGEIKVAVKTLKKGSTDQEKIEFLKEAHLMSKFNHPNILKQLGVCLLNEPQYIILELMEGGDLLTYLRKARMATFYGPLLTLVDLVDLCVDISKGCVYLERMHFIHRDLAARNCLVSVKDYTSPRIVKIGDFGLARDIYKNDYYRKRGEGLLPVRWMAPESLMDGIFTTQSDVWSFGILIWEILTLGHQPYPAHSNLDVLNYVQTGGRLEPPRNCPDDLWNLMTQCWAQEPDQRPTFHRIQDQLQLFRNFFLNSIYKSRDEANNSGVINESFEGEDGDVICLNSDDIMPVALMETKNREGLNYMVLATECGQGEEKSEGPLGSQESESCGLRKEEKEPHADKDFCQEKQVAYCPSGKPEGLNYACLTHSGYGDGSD
Chain of Glycogen synthase kinase-3 beta (Homo sapiens) (P49841 whole entry, looked up): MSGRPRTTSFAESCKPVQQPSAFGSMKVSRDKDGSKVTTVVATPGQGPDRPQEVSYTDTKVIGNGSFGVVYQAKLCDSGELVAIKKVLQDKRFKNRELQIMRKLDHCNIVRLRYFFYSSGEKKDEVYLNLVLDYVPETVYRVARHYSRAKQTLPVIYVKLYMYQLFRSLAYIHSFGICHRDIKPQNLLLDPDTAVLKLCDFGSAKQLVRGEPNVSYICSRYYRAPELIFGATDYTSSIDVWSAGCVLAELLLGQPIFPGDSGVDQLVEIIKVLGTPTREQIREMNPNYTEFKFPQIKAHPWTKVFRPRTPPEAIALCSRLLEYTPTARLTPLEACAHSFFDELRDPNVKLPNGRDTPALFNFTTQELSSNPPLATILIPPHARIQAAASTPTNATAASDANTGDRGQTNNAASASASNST
Chain of Focal adhesion kinase 1 (Homo sapiens) (Q05397 2-1052 limits assumed): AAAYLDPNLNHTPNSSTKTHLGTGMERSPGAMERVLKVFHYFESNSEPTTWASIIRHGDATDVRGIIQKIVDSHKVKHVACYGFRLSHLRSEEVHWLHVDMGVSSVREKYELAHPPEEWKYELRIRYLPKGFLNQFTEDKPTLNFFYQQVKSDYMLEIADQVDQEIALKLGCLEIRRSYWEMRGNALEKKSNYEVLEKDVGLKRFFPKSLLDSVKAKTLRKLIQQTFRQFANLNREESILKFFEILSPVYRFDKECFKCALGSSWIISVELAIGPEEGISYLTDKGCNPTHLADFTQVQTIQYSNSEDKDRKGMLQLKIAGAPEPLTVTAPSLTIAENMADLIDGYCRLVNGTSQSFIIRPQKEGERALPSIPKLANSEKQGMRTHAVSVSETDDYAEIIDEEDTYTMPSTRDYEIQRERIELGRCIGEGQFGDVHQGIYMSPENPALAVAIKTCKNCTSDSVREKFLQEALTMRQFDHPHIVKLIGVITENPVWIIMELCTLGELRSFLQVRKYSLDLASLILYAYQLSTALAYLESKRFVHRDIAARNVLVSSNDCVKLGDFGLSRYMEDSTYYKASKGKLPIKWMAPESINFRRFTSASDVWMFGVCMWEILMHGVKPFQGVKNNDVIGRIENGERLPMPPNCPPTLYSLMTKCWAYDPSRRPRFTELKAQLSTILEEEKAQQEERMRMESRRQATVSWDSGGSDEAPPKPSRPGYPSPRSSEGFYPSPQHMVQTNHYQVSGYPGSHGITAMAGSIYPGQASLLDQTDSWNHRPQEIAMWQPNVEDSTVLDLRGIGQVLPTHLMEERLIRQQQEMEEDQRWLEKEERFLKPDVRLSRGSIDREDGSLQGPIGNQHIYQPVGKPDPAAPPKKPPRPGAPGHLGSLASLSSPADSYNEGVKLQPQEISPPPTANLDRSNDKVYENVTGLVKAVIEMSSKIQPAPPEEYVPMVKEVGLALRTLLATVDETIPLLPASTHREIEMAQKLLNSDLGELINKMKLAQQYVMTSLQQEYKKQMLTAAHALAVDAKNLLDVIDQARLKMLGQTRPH
Chain of Dual specificity protein kinase CLK1 (Homo sapiens) (P49759 whole entry, looked up): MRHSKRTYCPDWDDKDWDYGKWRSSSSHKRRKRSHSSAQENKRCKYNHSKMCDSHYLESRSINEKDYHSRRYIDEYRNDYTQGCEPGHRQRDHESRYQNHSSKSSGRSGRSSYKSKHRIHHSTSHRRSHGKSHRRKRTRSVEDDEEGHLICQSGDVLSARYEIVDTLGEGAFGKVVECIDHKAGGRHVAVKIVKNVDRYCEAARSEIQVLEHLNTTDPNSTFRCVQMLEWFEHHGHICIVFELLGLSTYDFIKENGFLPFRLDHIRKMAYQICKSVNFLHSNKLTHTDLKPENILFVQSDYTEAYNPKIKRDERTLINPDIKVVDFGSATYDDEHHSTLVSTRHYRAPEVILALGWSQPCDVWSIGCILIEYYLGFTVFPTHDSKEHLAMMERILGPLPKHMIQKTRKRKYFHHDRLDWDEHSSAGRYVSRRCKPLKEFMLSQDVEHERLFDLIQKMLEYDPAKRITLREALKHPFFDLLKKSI
Chain of Serine/threonine-protein kinase PAK 5 (Homo sapiens) (Q9P286 whole entry, looked up): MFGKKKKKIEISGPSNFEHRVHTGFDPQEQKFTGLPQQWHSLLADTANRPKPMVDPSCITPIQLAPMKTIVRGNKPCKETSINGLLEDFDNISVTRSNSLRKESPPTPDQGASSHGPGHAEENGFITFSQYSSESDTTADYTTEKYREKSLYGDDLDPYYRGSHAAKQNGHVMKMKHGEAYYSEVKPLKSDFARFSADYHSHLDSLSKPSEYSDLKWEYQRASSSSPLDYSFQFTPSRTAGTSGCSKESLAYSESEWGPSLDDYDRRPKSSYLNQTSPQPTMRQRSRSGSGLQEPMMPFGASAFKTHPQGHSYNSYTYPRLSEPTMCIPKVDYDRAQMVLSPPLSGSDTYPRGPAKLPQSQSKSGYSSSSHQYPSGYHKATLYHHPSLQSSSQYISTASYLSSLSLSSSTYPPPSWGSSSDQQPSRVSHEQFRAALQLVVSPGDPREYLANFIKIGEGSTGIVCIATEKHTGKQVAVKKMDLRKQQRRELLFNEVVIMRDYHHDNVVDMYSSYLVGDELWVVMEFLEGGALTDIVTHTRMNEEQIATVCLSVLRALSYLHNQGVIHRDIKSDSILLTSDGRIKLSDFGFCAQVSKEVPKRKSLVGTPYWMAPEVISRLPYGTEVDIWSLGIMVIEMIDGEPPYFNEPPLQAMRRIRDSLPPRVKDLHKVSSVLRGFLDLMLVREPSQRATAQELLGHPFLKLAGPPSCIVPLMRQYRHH

residual activity [1] [%] | residual activity [2] [%] | residual activity [3] [%] | residual activity [4] [%] | residual activity [5] [%] | residual activity [6] [%] | residual activity [7] [%] | residual activity [8] [%] | residual activity [9] [%] | residual activity [10] [%] | residual activity [11] [%] | residual activity [12] [%] | residual activity [13] [%] | residual activity [14] [%] | Structure (SMILES)
90 | 54 | 98 | 95 | 72 | 91 | 107 | 49 | 24 | 96 | 109 | 96 | 84 | 56 | COc1cc2c(Oc3ccc(-c4nc5ccccc5s4)cc3)ncnc2cc1OCCCN1CCCC1
102 | 47 | 93 | 103 | 63 | 84 | 99 | 54 | 18 | 96 | 97 | 98 | 45 | 63 | COc1cc2c(Oc3ccc(-c4nc5ccccc5s4)cc3)ncnc2cc1OCCCN1CCN(C)CC1
96 | 38 | 104 | 96 | 80 | 93 | 104 | 48 | 20 | 97 | 105 | 93 | 49 | 80 | COc1cc2c(Oc3ccc(-c4nc5ccccc5s4)cc3F)ncnc2cc1OCCCN1CCN(C)CC1
